According to US20260000596A1, “SEMI-SYNTHETIC RHAMNOLIPIDS” (The Procter & Gamble Company, priority 2024, published 2026):
In brackets after ≈: the same amount, converted by molar mass. Like-named read-outs stand apart in the source and are kept apart here.

Legend:
Assay type in all cases: cell-based
[1] = test system: Escherichia coli ATCC 8739; assay: Minimal Kill Concentration Assay (MKCA), E. coli; details: 20-minute contact time; for MBC: Escherichia coli, ATCC8739, 20 min, read-out: E. coli MKC (ppm)
Procedure: (§1) The MKC assay is a 96 well plate method to determine the minimum concentration of a test material or composition needed to kill Gram-negative and Gram-positive bacteria (Escherichia coli ATCC 8739 and Staphylococcus aureus ATCC 6538, respectively). The bacterial suspensions are prepared from 10× freezer stocks with 15% glycerol. The freezer stocks are centrifuged at 13,000×g (Eppendorf Centrifuge […] No. 541705483) for 1 minute. The supernatant is removed, and the cell pellet is resuspended in 1 mL saline (Sodium chloride solution 0.9%, Cytiva REF: Z1376), and then transferred to 9 mL saline. The target cfu/ml is 10^8, which is confirmed via serial diluting and plating on TSA plates (Tryptic Soy Agar-Sigma-Aldrich Cat #22091). Then 50 μL (25 μL if low on test materials) of bacteria is added to each well of a 96 well 0.5 mL V-Bottom plate (Greiner bio-one REF: 786201) to make a bacteria plate, one separate plate for each bacterium. The dilutions of the test compounds are prepared in a separate 96 well plate. The test compounds are tested at six dilutions in duplicates or with no replication diluted across the entire plate. The test compounds are prepared in Dimethyl Sulfoxide (Sigma Aldrich GR ACS Cat. No: MX1458-6) or sterile water at 2× the intended test concentration, and then serially diluted in the appropriate vehicle 1:2 across the plate using a multichannel. 50 μL (25 μL if low on test materials) from the test compound plate is added to each well in the bacteria plate all at once using an Integra VIAFLOW 96 channel pipette (Model: VIAFLO 96) and the Integra 300 μL Head (Part No. 6103). With addition of the 2× compounds bacteria plate, the compounds are diluted to a 1× test concentration. The addition of the test compounds to the bacteria wells starts the 20-minute contact time. The plates are mixed well using a Mix-Mate (Eppendorf SE). After 20 minutes, 1 μL from each well of the bacteria plate is transferred to premade Tryptic Soy Agar (TSA) plates (OmniTray Cell Culture Treated w/Lid Sterile, Cat. No: 165218) for spot plating using the Integra VIAFLOW 96 with the Integra 12.5 μL head (Part No. 6101). Then 4 μL from each well of the bacteria/compound plate is transferred to another 96 well plate containing 36 μL of neutralizer broth Modified Letheen Broth (BD Difco Letheen Broth, Modified REF 263010). The contact time is stopped at 20 minutes once the compound plate is neutralized. The plates are mixed well using a Mix-Mate and then 1 μL of the neutralizer+sample mix is transferred to a TSA OmniTray plate using the Integra VIAFLOW and Integra 12.5 μL head. The TSA spot plates are then incubated overnight for 20 hours at 37° C. in an Incubator. This process is done for both bacteria species. After overnight incubation, the plates are removed from the incubator and the results recorded by observing which dilutions had bacterial kill/growth. The last dilution that had kill for both replicates is recorded as the MKC. A positive control of Benzalkonium chloride (Sigma Aldrich Cat. No.: 12060-5G) and vehicle controls are always included in the test.

[2] = test system: Staphylococcus aureus ATCC 6538; assay: Minimal Kill Concentration Assay (MKCA), S. aureus; details: 20-minute contact time; for minimal kill concentration (20-minute contact): Staphylococcus aureus, ATCC6538, 20 min, read-out: S. aureus MKC (ppm)
Procedure: as §1

[3] = test system: Staphylococcus aureus ATCC #6538; assay: Minimum Inhibitory Concentration (MIC) Assay with Minimum Biocidal Concentration (MBC); details: for MBC / MIC: Staphylococcus aureus, ATCC6538, 24 h; for MBC: read-out: S. aureus MBC (ppm); for MIC: read-out: S. aureus MIC (ppm); for S. aureus MIC (ppm) / S. aureus MBC (ppm): Table 1.5; for S. aureus MIC (ppm): >=50% inhibition, 24 hrs at 35° C.; for S. aureus MBC (ppm): no visible growth
Procedure: The Minimum Inhibitory Concentration (MIC) Assay is a 96-well high throughput method that determines the minimum concentration of an active required to inhibit the growth of microorganisms. Organism preparation: Compounds were evaluated against the following microorganisms: Staphylococcus aureus ATCC #6538 (American Type Culture Collection, Manassas, Virginia, USA). To prepare bacteria solutions, bacteria were streaked on Tryptic Soy Agar (TSA) and incubated at 30-35° C. for 18-24 hrs. Confluent growth was transferred to saline (0.85% NaCl) and turbidometrically adjusted to a target concentration of 10^7-10^8 CFU/ml. This inoculum solution was further diluted 1:1000 in Tryptic Soy Broth (pH 7) for assay use. Assay: Two-fold serial dilutions were prepared in Dimethylsulfoxide (DMSO, Thermo Scientific Pierce DMSO, Sequencing Grade) or sterile water for each test sample. In a sterile 96-well plate, each dilution was further diluted in broth inoculum such that each well contained 5% dilution and 95% broth inoculum. Bacteria plates were incubated on an orbital shaker (Heidolph Titramax 1000 Vibrating Platform Shaker, 200-300 rpm) for 24±2 hrs at 35° C. After incubation, the optical density (OD) of each well was measured in a spectrophotometer (Victor Nivo Multimode Plate Reader) at 600 nm. […] To determine the Minimum Biocidal Concentration (MBC), 2 ul from each well was pipetted onto neutralizing agar (Modified Letheen Agar with Tween) and incubated for 24 hrs at 30-35° C. The MBC was determined as the most dilute concentration with no visible growth.

[4] = Table 4, derivatized rhamnolipids, solvent DMSO

Structure (SMILES)	MBC [1, 4] [µg/mL]	minimal kill concentration (20-minute contact) [2, 4] [µg/mL]	MBC ([3]; Table 5, solvent DMSO) [µg/mL]	MIC ([3]; Table 5, solvent DMSO) [µg/mL]	S. aureus MIC (ppm) ([3]; solvent DMSO)	S. aureus MBC (ppm) ([3]; solvent DMSO)	other results
CCCCCCCC(CC(=O)OC)O[C@@H]1O[C@@H](C)[C@H](O)[C@@H](O)[C@H]1O (stereo partly drawn) [methyl 3-(((2R,3R,4R,5R,6S)-3,4,5-trihydroxy-6-methyltetrahydro-2H-pyran-2-yl)oxy)decanoate]	> 3490	> 3490	1400 (≈ 4 mM)	1400 (≈ 4 mM)			
CCCCCC(CC(=O)O)OC1O[C@@H](C)[C@H](O)[C@@H](O)[C@H]1O (some centres unmarked) [Rha1C14]					625	>10000	E. coli MKC (ppm) ([1]; Table 1.4b, solvent DMSO): 781 ppm; S. aureus MKC (ppm) ([2]; Table 1.4b, solvent DMSO): 781 ppm
CCCCCCCC(O)CC(=O)O (racemic) [(±)-3-Hydroxydecanoic acid, reference compound]							MBC ([1]; Table 1.4b, solvent water): 753 µg/mL (≈ 4 mM); minimal kill concentration (20-minute contact) ([2]; Table 1.4b, solvent water): 753 µg/mL; MIC [3]: 1130 µg/mL (≈ 6 mM)
CCCCCCCC(CC(=O)O)O[C@@H]1O[C@@H](C)[C@H](O)[C@@H](O)[C@H]1O[C@@H]1O[C@H](C)C(O)[C@@H](O)[C@H]1O (stereo partly drawn) [3-(((2R,3R,4R,5R,6S)-4,5-dihydroxy-6-methyl-3-(((2S,3R,4R,6R)-3,4,5-trihydroxy-6-methyltetrahydro-2H-pyran-2-yl)oxy)tetrahydro-2H-pyran-2-yl)oxy)decanoic acid]	> 4810	> 4810	> 1920	> 1920			
CCCCCCCCCC(O)CC(=O)O (racemic) [DL-β-Hydroxylauric acid, reference compound]					325	650	E. coli MKC (ppm) ([1]; Table 1.4b, solvent water): >865 ppm; S. aureus MKC (ppm) ([2]; Table 1.4b, solvent water): >865 ppm
CCCCCCCC(CC(=O)NC)O[C@@H]1O[C@@H](C)[C@H](O)[C@@H](O)[C@H]1O[C@H]1O[C@@H](C)[C@@H](O)[C@H](O)[C@@H]1O (stereo partly drawn) [3-(((2R,3R,4R,5R,6S)-4,5-dihydroxy-6-methyl-3-(((2R,3S,4S,5S,6S)-3,4,5-trihydroxy-6-methyltetrahydro-2H-pyran-2-yl)oxy)tetrahydro-2H-pyran-2-yl)oxy)-N-methyldecanamide]	> 4940	> 4940	> 1970	> 1970			
